Where “and” joins values, the source holds several entries; their conditions need not be identical. Equal values may be shown once. Where a name gives a salt, the structure may show the parent alone.
Test: iontophoretic transdermal delivery of Tapentadol hydrochloride, 24 hours of iontophoresis (example 1b), side-bi-side diffusion cells, constant current 0.25 mA (0.4 mA/cm2), donor 100 mM in water
Assay type: in vitro ADME, pig
Settings: for drug flux across the skin, Mean ± SD / drug flux across the skin, as tapentadol base, Mean ± SD / cumulative, iontophoretic delivery across the skin, Mean ± SD / cumulative, iontophoretic delivery across the skin, as tapentadol base, Mean ± SD: n=6; for drug flux across the skin, Mean ± SD / drug flux across the skin, as tapentadol base, Mean ± SD / cumulative, iontophoretic delivery across the skin, Mean ± SD / cumulative, iontophoretic delivery across the skin, as tapentadol base, Mean ± SD / drug flux across the skin / cumulative, iontophoretic delivery across the skin: patch area 0.64 cm^2; for drug flux across the skin / cumulative, iontophoretic delivery across the skin: single cells 1-6, hydrochloride; for cumulative, iontophoretic delivery across the skin: listed as Tapentadol HCl
Method: Determination of the rate of iontophoretic transdermal delivery of Tapentadol hydrochloride for a period of 24 hours of iontophoresis
Tapentadol hydrochloride (batch no. A0012) was employed. The components of the phosphate buffered saline (PBS) and the mobile phase used were from Sigma, UK. The pig skin was obtained from a local farm, washed with water, excess hair was carefully trimmed with scissors, and the skin was dermatomed using a Zimmer dermatome set at a nominal thickness of 750 μm. The skin was then stored at −20° C.
The drug was delivered from the anode, using side-bi-side (horizontal) glass diffusion cells (n=6) supplied by Permegear, USA. The porcine skin membrane was excised from the dorsal surface.
Electrodes were prepared in-house and were made of silver/silver chloride. To pass current for 24 hours in this set-up, it was necessary for the donor compartment to contain 76 mM chloride ions.
The anode was placed in the donor chamber; the donor solution was 3 ml of Tapentadol hydrochloride (100 mM, i.e. 25.78 mg/ml of Tapentadol hydrochloride, 22.13 mg/ml of base) in water. The cathode was placed in the receptor chamber, which contained 3 ml of phosphate-buffered saline, pH 7.4. Both chambers were stirred by magnets.
Current was applied for a total of 8 or 24 hours, respectively.
The receptor solution was sampled and assayed at 0.5, 1, 2, 3, 4, 5, 6, 7, 8 (example 1a) and optionally 24 hours (example 1b) post-initiation of the current. During the 8 hour experiment (example 1a), at 0.5, 1, 2, and 3 hours, 1 ml of receptor solution was removed and replaced with fresh PBS. As it was clear that the amount of Tapentadol in the receptor solution was sufficient for quantitation by HPLC, at the subsequent sampling times of 4, 5, 6, 7 and 8 hours, the entire receptor solution (3 ml) was removed and replaced with fresh PBS, to ensure sink conditions in the receptor. During the 24 hour experiment (example 1b), the entire receptor solution (3 ml) was removed and replaced with fresh PBS at every sampling point.
The concentrations of Tapentadol hydrochloride in the receptor chamber samples were determined by HPLC. A mobile phase consisting of 300:700:1 methanol:water:phosphoric acid was pumped (1 ml/min) through a Acclaim RP-18 (4×150 mm) reverse-phase column (Dionex, UK) at 35° C. Tapentadol concentrations were quantified via their UV absorbance at 215 nm using a calibration curve diluted in PBS at pH 7.4. Injection volume was 20 μl and the retention time for Tapentadol hydrochloride was 12 minutes and the total run time was 16 minutes.
A Tapentadol-free “blank” diffusion cell (donor was saline only) was also prepared and the receptor solution was analysed after 8 hours to confirm no peaks from any component of the skin co-eluted with the Tapentadol hydrochloride.
Voltages were as expected for 6 cells in series (range was 6 to 28 volts). The pH of the donor solution was measured after termination of 24 hours of iontophoresis, and ranged from 6.47 to 6.99. The pH of drug in the donor prior to commencing the experiment was 5.07 (5.34 for the 8 hour iontophoresis).

[1] = 24 hours iontophoresis, as tapentadol hydrochloride

CC[C@@H](c1cccc(O)c1)[C@@H](C)CN(C)C [Tapentadol hydrochloride]
drug flux across the skin, Mean ± SD (0.5 h, iontophoresis): 3 ± 2 µg/h | drug flux across the skin, as tapentadol base, Mean ± SD (0.5 h, iontophoresis): 3 ± 2 µg/h | cumulative, iontophoretic delivery across the skin, Mean ± SD (0.5 h): 2 ± 1 µg | cumulative, iontophoretic delivery across the skin, as tapentadol base, Mean ± SD (0.5 h): 1 ± 1 µg | drug flux across the skin, Mean ± SD (1 h, iontophoresis): 48 ± 22 µg/h | drug flux across the skin, as tapentadol base, Mean ± SD (1 h, iontophoresis): 41 ± 19 µg/h | cumulative, iontophoretic delivery across the skin, Mean ± SD (1 h): 26 ± 12 µg | cumulative, iontophoretic delivery across the skin, as tapentadol base, Mean ± SD (1 h): 22 ± 10 µg | drug flux across the skin, Mean ± SD (1.5 h, iontophoresis): 96 ± 22 µg/h | drug flux across the skin, as tapentadol base, Mean ± SD (1.5 h, iontophoresis): 82 ± 19 µg/h | cumulative, iontophoretic delivery across the skin, Mean ± SD (1.5 h): 74 ± 22 µg | cumulative, iontophoretic delivery across the skin, as tapentadol base, Mean ± SD (1.5 h): 63 ± 19 µg | drug flux across the skin, Mean ± SD (2 h, iontophoresis): 144 ± 38 µg/h | drug flux across the skin, as tapentadol base, Mean ± SD (2 h, iontophoresis): 124 ± 33 µg/h | cumulative, iontophoretic delivery across the skin, Mean ± SD (2 h): 146 ± 41 µg | cumulative, iontophoretic delivery across the skin, as tapentadol base, Mean ± SD (2 h): 125 ± 35 µg | drug flux across the skin, Mean ± SD (3 h, iontophoresis): 176 ± 32 µg/h | drug flux across the skin, as tapentadol base, Mean ± SD (3 h, iontophoresis): 151 ± 28 µg/h | drug flux across the skin (3 h, iontophoresis): 128 µg/h and 147 µg/h and 203 µg/h and 208 µg/h and 181 µg/h and 190 µg/h | cumulative, iontophoretic delivery across the skin, Mean ± SD (3 h): 322 ± 72 µg | cumulative, iontophoretic delivery across the skin, as tapentadol base, Mean ± SD (3 h): 276 ± 61 µg | cumulative, iontophoretic delivery across the skin (3 h): 224 µg and 259 µg and 364 µg and 419 µg and 315 µg and 348 µg | drug flux across the skin, Mean ± SD (4 h, iontophoresis): 232 ± 27 µg/h | drug flux across the skin, as tapentadol base, Mean ± SD (4 h, iontophoresis): 199 ± 23 µg/h | drug flux across the skin (4 h, iontophoresis): 184 µg/h and 217 µg/h and 238 µg/h and 257 µg/h and 248 µg/h | cumulative, iontophoretic delivery across the skin, Mean ± SD (4 h): 554 ± 96 µg | cumulative, iontophoretic delivery across the skin, as tapentadol base, Mean ± SD (4 h): 475 ± 83 µg | cumulative, iontophoretic delivery across the skin (4 h): 408 µg and 476 µg and 602 µg and 676 µg and 563 µg and 596 µg | drug flux across the skin, Mean ± SD (5 h, iontophoresis): 270 ± 22 µg/h | drug flux across the skin, as tapentadol base, Mean ± SD (5 h, iontophoresis): 232 ± 19 µg/h | drug flux across the skin (5 h, iontophoresis): 227 µg/h and 271 µg/h and 283 µg/h and 285 µg/h and 284 µg/h and 272 µg/h | cumulative, iontophoretic delivery across the skin, Mean ± SD (5 h): 824 ± 116 µg | cumulative, iontophoretic delivery across the skin, as tapentadol base, Mean ± SD (5 h): 707 ± 99 µg | cumulative, iontophoretic delivery across the skin (5 h): 635 µg and 747 µg and 885 µg and 962 µg and 847 µg and 867 µg | drug flux across the skin, Mean ± SD (6 h, iontophoresis): 277 ± 18 µg/h | drug flux across the skin, as tapentadol base, Mean ± SD (6 h, iontophoresis): 238 ± 16 µg/h | drug flux across the skin (6 h, iontophoresis): 243 µg/h and 282 µg/h and 298 µg/h and 277 µg/h and 286 µg/h and 274 µg/h | cumulative, iontophoretic delivery across the skin, Mean ± SD (6 h): 1101 ± 129 µg | cumulative, iontophoretic delivery across the skin, as tapentadol base, Mean ± SD (6 h): 945 ± 111 µg | cumulative, iontophoretic delivery across the skin (6 h): 878 µg and 1029 µg and 1183 µg and 1239 µg and 1133 µg and 1142 µg | drug flux across the skin, Mean ± SD (7 h, iontophoresis): 282 ± 18 µg/h | drug flux across the skin, as tapentadol base, Mean ± SD (7 h, iontophoresis): 242 ± 15 µg/h | drug flux across the skin (7 h, iontophoresis): 248 µg/h and 292 µg/h and 282 µg/h and 295 µg/h | cumulative, iontophoretic delivery across the skin, Mean ± SD (7 h): 1382 ± 144 µg | cumulative, iontophoretic delivery across the skin, as tapentadol base, Mean ± SD (7 h): 1187 ± 123 µg | cumulative, iontophoretic delivery across the skin (7 h): 1125 µg and 1322 µg and 1465 µg and 1534 µg and 1425 µg and 1424 µg | drug flux across the skin, Mean ± SD (8 h, iontophoresis): 288 ± 30 µg/h | drug flux across the skin, as tapentadol base, Mean ± SD (8 h, iontophoresis): 247 ± 26 µg/h | drug flux across the skin (8 h, iontophoresis): 254 µg/h and 331 µg/h and 256 µg/h and 302 µg/h and 282 µg/h | cumulative, iontophoretic delivery across the skin, Mean ± SD (8 h): 1671 ± 155 µg | cumulative, iontophoretic delivery across the skin, as tapentadol base, Mean ± SD (8 h): 1434 ± 133 µg | cumulative, iontophoretic delivery across the skin (8 h): 1380 µg and 1653 µg and 1721 µg and 1836 µg and 1727 µg and 1706 µg | drug flux across the skin, Mean ± SD (24 h, iontophoresis): 309 ± 26 µg/h | drug flux across the skin, as tapentadol base, Mean ± SD (24 h, iontophoresis): 265 ± 23 µg/h | drug flux across the skin (24 h, iontophoresis): 300 µg/h and 342 µg/h and 330 µg/h and 323 µg/h and 282 µg/h and 277 µg/h | cumulative, iontophoretic delivery across the skin, Mean ± SD (24 h): 6616 ± 468 µg | cumulative, iontophoretic delivery across the skin, as tapentadol base, Mean ± SD (24 h): 5680 ± 402 µg | cumulative, iontophoretic delivery across the skin (24 h): 6185 µg and 7120 µg and 7001 µg and 7000 µg and 6247 µg and 6145 µg | cumulative amount delivered across a 0.64 cm2 area of skin, as tapentadol base (24 hours iontophoresis): 5.7 mg | cumulative amount delivered per 1 cm2, as tapentadol base (24 hours iontophoresis): 8.9 mg | cumulative amount delivered across a 0.64 cm2 area of skin [1]: 6.6 mg | cumulative amount delivered per 1 cm2 [1]: 10.3 mg | time by which steady-state flux appears to have been reached (example 1b, iontophoresis): 5 to 6 h | difference between flux during iontophoresis and flux due to passive diffusion (iontophoresis vs comparative example 1b): 30 fold
